“And” between values parts separate entries of the source, which are not always exact repeats. Equal values may be shown once.
Experiments:
Assay type in all cases: biochemical
trypsin = assay: Trypsin IQF diubiquitin selectivity assay; conditions: for Normalised V0: Fig. 1e, Trypsin; for TRYPSIN, normalised activity (Ext. 1a): two replicate columns
Description: BRISC DUB activity was measured at room temperature using 1 nM BRISC and 500 nM IQF diubiquitin K63 substrate (LifeSensors, DU6303) in the presence of DMSO and compounds at 10 μM (final concentrations). Assays were performed in 384-well black flat-bottom low-flange plates (Corning, 35373) in buffer containing 50 mM HEPES–NaOH pH 7.0, 100 mM NaCl, 1 mg ml^−1 BSA, 1 mM DTT and 0.03% v/v Brij-35. Then, 10 μl of twofold concentrated enzyme stock was dispensed, followed by transfer of 200 nl of compounds (1 mM stock) using a 384-pin tool and a 15-min incubation at room temperature. Then, 10 μl of twofold concentrated substrate stock was added and the reaction was monitored by measuring fluorescence intensity (excitation, 540 nm; emission, 580 nm) after 20-min incubation at room temperature and ~50% of substrate was consumed. Orthogonal assays for verification of H20 and P12 hit compounds using USP2 (100 nM) and trypsin (125 nM) were performed in identical conditions.
(§1) IQF assays were performed in DUB reaction buffer containing 50 mM HEPES–NaOH pH 7.0, 100 mM NaCl, 0.1 mg ml^−1 BSA, 1 mM DTT and 0.03% v/v Brij-35. […] The final concentration of BRISC WT, all BRISC mutants, HsBRISCΔLoop, MmBRISC and DrBRISCΔNΔC was 1 nM. Other enzymes were tested at the following concentrations: 5 nM ARISC (FL), 10 nM CfBRISCΔNΔC, 250 nM AMSH* (ref. [43]), 500 nM USP2 and 1 μM trypsin (Sigma, 9002-07-7). For Michaelis–Menten experiments, 1 nM BRISC with 0–1 μM IQF K63-linked diubiquitin substrate was used. Michaelis–Menten analyses and Lineweaver–Burk plots were calculated using GraphPad Prism (version 9.0).
(§2) To assess enzymatic activity, BRISC complexes were diluted to concentrations between 1 nM and 50 nM. […] Then, 20-μl enzyme reactions were carried out in 384-well black flat-bottom low-flange plates (Corning, 35373). DUB activity was measured using IQF K63-linked diubiquitin (LifeSensors, DU6303) at 50 nM. Cleaved diubiquitin was monitored by measuring fluorescence intensity (excitation, 544 nm; emission, 575 nm; dichroic mirror, 560 nm). Fluorescence intensity was measured every minute for 30 min at 30 °C. Fluorescence intensity units were plotted against time to generate a linear reaction progress curve, where the initial velocity (V0) corresponds to the gradient of the curve (typically achieved within 15 min). IC50 values were calculated using the GraphPad Prism (version 9.0) built-in dose–response equation for inhibitor concentration versus response (variable slope).

ARISC = biological target: T1, ARISC (Homo sapiens, UniProt P46736+Q6UWZ7+Q9NXR7); assay: ARISC IQF DUB activity assay; conditions: for Normalised V0: Fig. 1e, ARISC
T1 construct: full-length BRISC (FL), ARISC (FL); made in house; host or cells: Spodoptera frugiperda (Sf9) insect cells, MultiBac
Description: as §1, §2

BRISC (FL) = biological target: T2, BRISC (FL) (Homo sapiens, UniProt P46736+Q15018+Q9NXR7); assay: In-gel deubiquitylation assay, TAMRA-labeled K63-tetraubiquitin, BRISC; conditions: 10 μM or 100 μM inhibitor
T2 construct: full-length BRISC (FL), ARISC (FL); made in house; host or cells: Spodoptera frugiperda Sf9 insect cells (MultiBac)
Description: The inhibitor capzimin (Merck) was diluted in 1 mM DTT and incubated for 30 min at room temperature to reduce disulfide bonds required for inhibitor activity. […] DUBs were incubated with 750 nM TAMRA-labeled K63-tetraubiquitin (LifeSensors, SI6304T) for 10 min at 30 °C. Reactions were quenched by adding 2.5 μl of 4× SDS–PAGE loading dye (240 mM Tris-HCl pH 6.8, 40% v/v glycerol, 8% w/v SDS, 0.04% w/v bromophenol blue and 5% v/v β-mercaptoethanol). The samples were resolved on 4–12% NuPAGE Bis–Tris gels (Thermo Fisher Scientific). Gels were scanned using an iBright FL 1500 (Thermo Fisher Scientific) (excitation, 515–545 nm; emission, 568–617 nm; exposure, 500 ms).

O=C(NC1CCNCC1)c1nn(C(=O)c2c(Cl)cccc2Cl)cc1NC(=O)c1c(Cl)cccc1Cl [JMS-175-2]
Normalised V0 (trypsin; JMS-175-2 0.02 μM): 1.129 and 1.522 and 0.9592
Normalised V0 (trypsin; JMS-175-2 0.0399999 μM): 1.059 and 1.128 and 0.891
Normalised V0 (trypsin; JMS-175-2 0.0599997 μM): 1.053 and 1.443 and 1.028
Normalised V0 (trypsin; JMS-175-2 0.0799994 μM): 1.079 and 1.241 and 1.027
Normalised V0 (trypsin; JMS-175-2 0.119998 μM): 1.132 and 1.572 and 1.058
Normalised V0 (trypsin; JMS-175-2 0.199996 μM): 1.063 and 1.165 and 0.9014
Normalised V0 (trypsin; JMS-175-2 0.499975 μM): 1.046 and 1.263 and 0.9518
Normalised V0 (trypsin; JMS-175-2 0.799936 μM): 1.084 and 1.3 and 1.031
Normalised V0 (trypsin; JMS-175-2 1.25984 μM): 1.117 and 1.247 and 0.9792
Normalised V0 (trypsin; JMS-175-2 1.9996 μM): 1.2322 and 1.34 and 0.9526
Normalised V0 (trypsin; JMS-175-2 3.159 μM): 1.104 and 1.275 and 0.8695
Normalised V0 (trypsin; JMS-175-2 5.19739 μM): 1.019 and 1.261 and 1.016
Normalised V0 (trypsin; JMS-175-2 7.99364 μM): 1.1 and 1.362 and 0.8881
Normalised V0 (trypsin; JMS-175-2 12.7839 μM): 1.055 and 1.3161 and 0.9778
Normalised V0 (trypsin; JMS-175-2 19.96 μM): 1.0605 and 1.284 and 0.9014
Normalised V0 (trypsin; JMS-175-2 31.4999 μM): 1.012 and 1.285 and 0.8918
Normalised V0 (trypsin; JMS-175-2 50.147 μM): 0.965 and 1.142 and 0.7769
Normalised V0 (trypsin; JMS-175-2 79.7601 μM): 0.9096 and 1.115 and 0.8428
Normalised V0 (trypsin; JMS-175-2 125.99 μM): 0.8068 and 0.9447 and 0.6574
Normalised V0 (trypsin; JMS-175-2 199.922 μM): 0.6351 and 0.815 and 0.623
TRYPSIN, normalised activity (Ext. 1a) (trypsin; log [compound (μM)] 0.1938, listed as H20): 1.0307 and 1.0157
TRYPSIN, normalised activity (Ext. 1a) (trypsin; log [compound (μM)] 0.4949, listed as H20): 1.0959 and 1.0924
TRYPSIN, normalised activity (Ext. 1a) (trypsin; log [compound (μM)] 0.7959, listed as H20): 1.0739 and 0.9776
TRYPSIN, normalised activity (Ext. 1a) (trypsin; log [compound (μM)] 1.0969, listed as H20): 1.0282 and 0.9851
TRYPSIN, normalised activity (Ext. 1a) (trypsin; log [compound (μM)] 1.3979, listed as H20): 0.9308 and 0.8423
TRYPSIN, normalised activity (Ext. 1a) (trypsin; log [compound (μM)] 1.6990, listed as H20): 0.8444 and 0.8335
TRYPSIN, normalised activity (Ext. 1a) (trypsin; log [compound (μM)] 2.0000, listed as H20): 0.8160 and 0.6662
TRYPSIN, normalised activity (Ext. 1a) (trypsin; log [compound (μM)] 2.3010, listed as H20): 0.6941 and 0.5461
TRYPSIN, normalised activity (Ext. 1a) (trypsin; log [compound (μM)] -0.1072, listed as H20): 1.2914 and 1.0218
TRYPSIN, normalised activity (Ext. 1a) (trypsin; log [compound (μM)] -0.4082, listed as H20): 1.0017 and 0.9864
TRYPSIN, normalised activity (Ext. 1a) (trypsin; log [compound (μM)] -0.7093, listed as H20): 0.9551 and 0.9457
TRYPSIN, normalised activity (Ext. 1a) (trypsin; log [compound (μM)] -1.7100, normalisation point): 1.0000
inhibition of ARISC (ARISC): did not inhibit
Normalised V0 (ARISC; JMS-175-2 0.02 μM): 0.8556 and 0.9425 and 1.0233
Normalised V0 (ARISC; JMS-175-2 0.0399999 μM): 1.026 and 1.067 and 1.046
Normalised V0 (ARISC; JMS-175-2 0.0599997 μM): 0.904 and 0.9422 and 0.9811
Normalised V0 (ARISC; JMS-175-2 0.0799994 μM): 0.9323 and 0.9821 and 1.136
Normalised V0 (ARISC; JMS-175-2 0.119998 μM): 0.8786 and 0.8823 and 0.8932
Normalised V0 (ARISC; JMS-175-2 0.199996 μM): 0.9071 and 0.9585 and 0.9413
Normalised V0 (ARISC; JMS-175-2 0.499975 μM): 0.8879 and 0.8767 and 0.9696
Normalised V0 (ARISC; JMS-175-2 0.799936 μM): 0.7555 and 0.9585 and 0.9201
Normalised V0 (ARISC; JMS-175-2 1.25984 μM): 0.8739 and 0.9751 and 0.9993
Normalised V0 (ARISC; JMS-175-2 1.9996 μM): 0.8524 and 0.9491 and 1.046
Normalised V0 (ARISC; JMS-175-2 3.159 μM): 0.8187 and 0.9789 and 0.9215
Normalised V0 (ARISC; JMS-175-2 5.19739 μM): 0.8621 and 0.9152 and 0.9509
Normalised V0 (ARISC; JMS-175-2 7.99364 μM): 0.8584 and 0.954 and 0.9288
Normalised V0 (ARISC; JMS-175-2 12.7839 μM): 0.8845 and 0.9334 and 1.056
Normalised V0 (ARISC; JMS-175-2 19.96 μM): 0.8867 and 0.9068 and 0.9342
Normalised V0 (ARISC; JMS-175-2 31.4999 μM): 0.9307 and 0.9204 and 1.017
Normalised V0 (ARISC; JMS-175-2 50.147 μM): 0.795 and 0.9622 and 0.9115
Normalised V0 (ARISC; JMS-175-2 79.7601 μM): 0.6555 and 0.8717 and 0.8624
inhibition of BRISC cleavage of K63-linked tetraubiquitin (BRISC (FL)): inhibit

Source: PMC7617869, “Molecular glues that inhibit deubiquitylase activity and inflammatory signaling” (Nature Structural & Molecular Biology, 2025)
